Test results: patent publication US9708321B2, “Spiro-quinazolinone derivatives and their use as positive allosteric modulators of mGluR4” (Merck Patent GmbH, priority 2013, dated 2017)

Target: T1, hmGluR4 (Homo sapiens, UniProt Q14833)
T1 construct: host or cells: HEK293T
Test: HEK-293 mGluR4 cells cAMP assay with EC20 L-Glutamate (HTRF)
Assay type: cell-based
Conditions: positive allosteric activity at EC20 L-Glutamate, 10 μM Forskolin, HEK293T mGluR4 cells, cAMP HTRF; read-out: hrmGluR4/HEK293T-hmGluR4 (EC50)
Procedure: II. Biological Assays HEK-293 mGluR4 Cells cAMP Assay with EC20 L-Glutamate
Using mGluR4 suspension cell format, 10 μM Forskolin (final conc.) used to induce the production of cAMP.
Test the positive allosteric activity of the compounds of the invention at EC20 (2.3 μM for mGluR4 and 4.3 μM for mGluR6) L-Glutamate,
cAMP dymanic2 kit is intended for the direct quantitative determination of cAMP and its principle is based on HTRF technology.
• Cells: HEK293T mGluR4 cells from Multispan, cat# C1191a lot# C1191a-040910 • Culture Media: DMEM+GlutaMAX1+10% dialyzed FBS, 100 mM Sodium Pyruvate, 1 ug/ml puromycin. • Glutamine Starvation Media: DMEM without GlutaMax for plating the cells (glutamine starvation overnight). DMEM high Glucose, without phenol red, glutamine, or sodium pyruvate+10% dialyzed FBS, 100 mM Sodium Pyruvate, 1 ug/ml puromycin, 10 mM Hepes. • Hanks' balanced Salt Solution, HBSS from Invitrogen • Greiner 384 well white low volume high base plate (784075) • cAMP dynamic2 from Cisbio Bioassays • Glutamate: L-Glutamaic acid, monosodium salt, Monohydrate, 98%, from Sigma-Aldrich • Cell Preparation: split cells at 80%-90% confluence. The following day, rinse the cells with DMEM without GlutaMax and change to Glutamine Starvation Media. Incubate overnight. Assay: • Prepare compound plate: Perform compound serial dilution (uses Matrix 4341 plate), using the Bravo liquid handling platform protocol (compound serial dilution) which adds DMSO to columns 1-24 (except cols. 3 and 13). Serial dilute compounds located in columns 3 and 13 at a 1:3 ratio; 10 points (10 ul of 3 mM compound into 20 ul DMSO). Use the Bravo liquid handling platform to transfer 1 ul from the serial dilution plate into Matrix 4314 plate to create stamp plates. Prepare Compound Dilution Buffer: • Dilute 20 mM Forskolin (in DMSO) stock solution in HBSS buffer to make a 20 uM solution (forskolin buffer; 2× solution). To the forskolin buffer, add glutamate to a concentration of 8 uM (compound dilution buffer; 2× EC20 glutamate and forskolin). • Using a multidrop, add 50 ul/well of compound dilution buffer to columns 1-22 of the 2 ul compound stamp plate. Columns 23 and 24 receive forskolin buffer containing 400 uM glutamate (EC100 glutamate; 2× solution). Columns 1 and 2 receive compound dilution buffer containing EC20 glutamate, which is the basal control. • Add a glutamate dose response to row P of compound plate. Prepare the dose response by serial diluting glutamate at a 1:3 ratio in forskolin buffer starting at 2 mM glutamate (2×). Dilute the glutamate 9 times and transfer to compound plate. Prepare Cell Plates: • Harvest cells: Rinse cells with pre-warmed HBSS-10 mM HEPES (without Ca Mg) and dissociate the cells from the flask with versene. Centrifuge the cells, remove the supernatant and suspend in pre-warmed HBSS+10 mM Hepes. Count the cells and centrifuge. Remove the supernatant and suspend the cells in HBSS+Hepes (with Ca Mg) at a density of 400,000 cells/ml. Perform Assay: • Dispense 5 ul from the diluted compound plate into Greiner low volume cell plate using the Bravo liquid handling platform. Using a Multidrop with the small tubing cassette, dispense 5 ul of cells (2000 cells/well) onto the compounds contained in the low volume plates. Incubate the cells at 37° C., 5% CO2 for 30 minutes in the incubator. Assay for cAMP: • Prepare cAMP-d2 and anti-cAMP-Crytate according to the instructions for the two step assay (see Cisbio manual) and add 10 ul of the mixed reagent to each well of the assay plate using the Multidrop. Incubate at room temperature for 60 minutes and read on the Envision plate reader using the mGluR low volume cAMP HTRF 384 well protocol.

T1 sequence (Q14833 33-912): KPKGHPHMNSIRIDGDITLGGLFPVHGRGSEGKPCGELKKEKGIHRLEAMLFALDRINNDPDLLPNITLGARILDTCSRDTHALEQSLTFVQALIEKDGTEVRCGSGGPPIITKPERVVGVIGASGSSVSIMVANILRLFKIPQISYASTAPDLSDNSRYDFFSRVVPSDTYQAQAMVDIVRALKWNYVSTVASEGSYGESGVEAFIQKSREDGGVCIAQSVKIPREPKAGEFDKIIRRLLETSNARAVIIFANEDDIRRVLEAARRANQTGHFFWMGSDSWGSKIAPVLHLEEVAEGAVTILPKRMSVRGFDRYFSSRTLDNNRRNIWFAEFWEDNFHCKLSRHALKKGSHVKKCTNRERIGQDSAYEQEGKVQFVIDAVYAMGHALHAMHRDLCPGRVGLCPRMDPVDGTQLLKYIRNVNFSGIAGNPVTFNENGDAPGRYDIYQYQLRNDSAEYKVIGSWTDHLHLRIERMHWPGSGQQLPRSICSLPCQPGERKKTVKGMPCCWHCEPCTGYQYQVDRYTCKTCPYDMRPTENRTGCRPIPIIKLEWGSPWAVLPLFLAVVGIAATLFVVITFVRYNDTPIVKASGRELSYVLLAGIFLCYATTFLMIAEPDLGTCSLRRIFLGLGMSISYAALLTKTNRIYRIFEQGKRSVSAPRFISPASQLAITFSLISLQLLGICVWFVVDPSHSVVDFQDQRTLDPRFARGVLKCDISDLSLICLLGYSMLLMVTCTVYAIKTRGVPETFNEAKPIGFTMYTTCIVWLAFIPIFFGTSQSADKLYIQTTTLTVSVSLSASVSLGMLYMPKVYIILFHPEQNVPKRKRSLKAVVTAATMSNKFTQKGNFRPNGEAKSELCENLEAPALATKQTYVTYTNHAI

Work on `O=C1c2ccc(Br)cc2NC2(CCN(Cc3cccc4cnccc34)CC2)N1c1ccc(OC(F)(F)F)cc1` [Compound 27, 7′-Bromo-1-(isoquinolin-5-ylmethyl)-3′-(4-(trifluoromethoxy)phenyl)-1′H-spiro[piperidine-4,2′-quinazolin]-4′(3′H)-one] yielded an EC50 of less than 1000 nM.

In the case of `O=C1c2ccc(F)cc2NC2(CN(Cc3ccccc3Cl)C2)N1c1ccc(OC(F)(F)F)cc1` [Compound 70, 1-(2-Chlorobenzyl)-7′-fluoro-3′-(4-(trifluoromethoxy)phenyl)-1′H-spiro[azetidine-3,2′-quinazolin]-4′(3′H)-one], the EC50 is reported as 1000 to 10000 nM.

`CCOC(=O)c1ccc2c(c1)NC1(CN(C(c3ccc(F)c(F)c3)C(F)(F)F)C1)N(c1ccc(OC(F)(F)F)cc1)C2=O` (centres unmarked) [Compound 34, Ethyl 1-(1-(3,4-difluorophenyl)-2,2,2-trifluoroethyl)-4′-oxo-3′-(4-(trifluoromethoxy)phenyl)-3′,4′-dihydro-1′H-spiro[azetidine-3,2′-quinazoline]-7′-carboxylate] was tested, and the EC50 was less than 1000 nM.

With `COc1ccc(N2C(=O)c3ccc(-c4ccccc4)cc3NC23CCN(Cc2ccc(F)c(F)c2)CC3)cc1` [Compound 19, 1-(3,4-Difluorobenzyl)-3′-(4-methoxyphenyl)-7′-phenyl-1′H-spiro[piperidine-4,2′-quinazolin]-4′(3′H)-one] the EC50 was less than 1000 nM.

In the case of `COc1ccc(N2C(=O)c3ccc(-c4ccco4)cc3NC23CCN(Cc2ccc(F)c(F)c2)CC3)cc1` [Compound 11, 1-(3,4-Difluorobenzyl)-7′-(furan-2-yl)-3′-(4-methoxyphenyl)-1′H-spiro[piperidine-4,2′-quinazolin]-4′(3′H)-one], the EC50 is reported as less than 1000 nM.

For `COCCOc1ccc(N2C(=O)c3ccc(F)cc3NC23CCN(Cc2ccc(F)c(F)c2)CC3)cc1` [Compound 106, 1-(3,4-difluorobenzyl)-7′-fluoro-3′-(4-(2-methoxyethoxyl)phenyl)-1′H-spiro[piperidine-4,2′-quinazolin]-4′(3′H)-one], the EC50 was 1000 to 10000 nM.

Work on `O=C1c2ccc(Br)cc2NC2(CCN(Cc3ccccc3)CC2)N1c1ccc(OC(F)(F)F)cc1` [Compound 28, 1-Benzyl-7′-bromo-3′-(4-(trifluoromethoxy)phenyl)-1′H-spiro[piperidine-4,2′-quinazolin]-4′(3′H)-one] yielded an EC50 of less than 1000 nM.

In the case of `COc1ccc(N2C(=O)c3ccc(C(=O)OC(C)C)cc3NC23CCN(Cc2ccc(F)c(F)c2)CC3)cc1` [Compound 3, Isopropyl 1-(3,4-difluorobenzyl)-3′-(4-methoxyphenyl)-4′-oxo-3′,4′-dihydro-1′H-spiro[piperidine-4,2′-quinazoline]-7′-carboxylate], the EC50 is reported as less than 1000 nM.

`COC(=O)c1ccc2c(c1)NC1(CCN(Cc3ccc(F)c(F)c3)CC1)N(c1ccc(OC)cc1)C2=O` [Compound 4, Methyl 1-(3,4-difluorobenzyl)-3′-(4-methoxyphenyl)-4′-oxo-3′,4′-dihydro-1′H-spiro[piperidine-4,2′-quinazoline]-7′-carboxylate] gave an EC50 of less than 1000 nM.

`O=C1c2ccc(Br)cc2NC2(CCN(Cc3ccccn3)CC2)N1c1ccc(OC(F)(F)F)cc1` [Compound 103, 7′-Bromo-1-(pyridin-2-ylmethyl)-3′-(4-(trifluoromethoxy)phenyl)-1′H-spiro[piperidine-4,2′-quinazolin]-4′(3′H)-one] showed an EC50 of 1000 to 10000 nM.

Work on `O=C1c2ccc(F)cc2NC2(CCN(Cc3ccc(F)c(F)c3)CC2)N1c1ccc(OC(F)(F)F)cc1` [Compound 69, 1-(3,4-Difluorobenzyl)-7′-fluoro-3′-(4-(trifluoromethoxy)phenyl)-1′H-spiro[piperidine-4,2′-quinazolin]-4′(3′H)-one] yielded an EC50 of 1000 to 10000 nM.

`O=C1c2ccc(F)cc2NC2(CCN(Cc3ccc(F)c(F)c3)CC2)N1c1ccc(Cl)cc1` [Compound 64, 3′-(4-Chlorophenyl)-1-(3,4-difluorobenzyl)-7′-fluoro-1′H-spiro[piperidine-4,2′-quinazolin]-4′(3′H)-one] gave an EC50 of less than 1000 nM.

For `CC(=O)c1cc2c(cc1Br)C(=O)N(c1ccc(OC(F)(F)F)cc1)C1(CCN(Cc3ccc(F)c(F)c3)CC1)N2` [Compound 12, 7′-Acetyl-6′-bromo-1-(3,4-difluorobenzyl)-3′-(4-(trifluoromethoxy)phenyl)-1′H-spiro[piperidine-4,2′-quinazolin]-4′(3′H)-one], the EC50 was less than 1000 nM.

`CCC(c1ccc(F)c(F)c1)N1CCC2(CC1)Nc1cc(Br)ccc1C(=O)N2c1ccc(Cl)cc1` (centres unmarked) [Compound 33, 7′-Bromo-3′-(4-chlorophenyl)-1-(1-(3,4-difluorophenyl)propyl)-1′H-spiro[piperidine-4,2′-quinazolin]-4′(3′H)-one] showed an EC50 of less than 1000 nM.

`COc1ccc(N2C(=O)c3ccccc3NC23CN(Cc2ccccc2Cl)C3)cc1` [Compound 50, 1-(2-Chlorobenzyl)-3′-(4-methoxyphenyl)-1′H-spiro[azetidine-3,2′-quinazolin]-4′(3′H)-one] gave an EC50 of less than 1000 nM.

In the case of `O=C1c2ccc(-c3ccncn3)cc2NC2(CCN(Cc3ccc(F)c(F)c3)CC2)N1c1ccc(OC(F)(F)F)cc1` [Compound 9, 1-(3,4-Difluorobenzyl)-7′-(pyrimidin-4-yl)-3′-(4-(trifluoromethoxy)phenyl)-1′H-spiro[piperidine-4,2′-quinazolin]-4′(3′H)-one], the EC50 is reported as less than 1000 nM.

Work on `Cn1cccc1CN1CCC2(CC1)Nc1cc(Br)ccc1C(=O)N2c1ccc(OC(F)(F)F)cc1` [Compound 120, 7′-Bromo-1-((1-methyl-1H-pyrrol-2-yl)methyl)-3′-(4-(trifluoromethoxy)phenyl)-1′H-spiro[piperidine-4,2′-quinazolin]-4′(3′H)-one] yielded an EC50 of 1000 to 10000 nM.

For `COc1ccc(N2C(=O)c3ccccc3NC23CCN(Cc2ccccc2C(F)(F)F)CC3)cc1` [Compound 66, 3′-(4-Methoxyphenyl)-1-(2-(trifluoromethyl)benzyl)-1′H-spiro[piperidine-4,2′-quinazolin]-4′(3′H)-one], the EC50 was 1000 to 10000 nM.

Work on `CCOC(=O)c1ccc2c(c1)NC1(CN(C(C)c3ccc(F)cc3)C1)N(c1ccc(OC(F)(F)F)cc1)C2=O` (centres unmarked) [Compound 87, Ethyl 1-(1-(4-fluorophenyl)ethyl)-4′-oxo-3′-(4-(trifluoromethoxy)phenyl)-3′,4′-dihydro-1′H-spiro[azetidine-3,2′-quinazoline]-7′-carboxylate] yielded an EC50 of 1000 to 10000 nM.

`COc1ccc(N2C(=O)c3ccccc3NC23CCN(Cc2ccccc2Cl)CC3)cc1` [Compound 111, 1-(2-Chlorobenzyl)-3′-(4-methoxyphenyl)-1′H-spiro[piperidine-4,2′-quinazolin]-4′(3′H)-one] showed an EC50 of 1000 to 10000 nM.

In the case of `O=C1c2ccc(Br)cc2NC2(CCN(C(c3cccc(F)c3)C(F)(F)F)CC2)N1c1ccc(OC(F)(F)F)cc1` (centres unmarked) [Compound 43, 7′-Bromo-1-(2,2,2-trifluoro-1-(3-fluorophenyl)ethyl)-3′-(4-(trifluoromethoxy)phenyl)-1′H-spiro[piperidine-4,2′-quinazolin]-4′(3′H)-one], the EC50 is reported as less than 1000 nM.

With `N#Cc1cccc(CN2CC3(C2)Nc2cc(C(F)(F)F)ccc2C(=O)N3c2ccc(OC(F)(F)F)cc2)c1` [Compound 91, 3-((4′-Oxo-3′-(4-(trifluoromethoxy)phenyl)-7′-(trifluoromethyl)-3′,4′-dihydro-1′H-spiro[azetidine-3,2′-quinazolin]-1-yl)methyl)benzonitrile] the EC50 was 1000 to 10000 nM.

`N#Cc1cccc(CN2CCC3(CC2)Nc2cc(C(F)(F)F)ccc2C(=O)N3c2ccc(OC(F)(F)F)cc2)c1` [Compound 42, 3-((4′-Oxo-3′-(4-(trifluoromethoxy)phenyl)-7′-(trifluoromethyl)-3′,4′-dihydro-1′H-spiro[piperidine-4,2′-quinazolin]-1-yl)methyl)benzonitrile] showed an EC50 of less than 1000 nM.
